“Also recorded” adds a separate entry of the source. One block for each compound: values may come before it.
Columns and labels:
Assay type in all cases: physicochemical
[1] = Emission spectra and absolute fluorescence quantum yield in dichloromethane (integrating sphere)
Description: (§1) The absorption, emission, and photostability properties of flavylium dyes 3-6 were measured.
Finally, the photoluminescence of Flav7 was compared to the prominent SWIR polymethine dyes, IR-26 and IR-1061. IR-26 has been widely-employed as a standard for this region, while IR-1061 has recently been the active component of nanomaterials for NIR-II in vivo imaging. Despite numerous studies which rely on these dyes, the reported ΦF for IR-26 have been inconsistent, and the ΦF of IR-1061 has yet to be thoroughly characterized. Consequently, to establish that Flav7 is more emissive than existing SWIR polymethine dyes, each dye's emission was directly compared using a SWIR camera. We prepared solutions of 3, IR-26, and IR-1061 in dichloromethane with identical absorbance at 808 nm, excited with a diffuse 808 nm laser, and imaged their emission over 1000-1500 nm.
(§2) The absorbance spectra in FIG. 2 and FIGS. 4A-4G were obtained in DCM on a JASCO V-770 UV-Visible/NIR spectrophotometer with a 2000 nm/min or 4000 nm/min scan rate. Plotted are the baseline corrected and normalized data. The emission spectra in FIG. 2 were taken in DCM on either a Horiba Instruments PTI QuantaMaster Series fluorometer (6), a Fluoromax-3 spectrofluorometer (1, 3-5), or home-built InGaAs array detector (Princeton Instruments). For 6 the following parameters were used: ex. 610 nm, emission collected from 620-900 nm, slits 5 nm, step size 1 nm, integration time 1 s. Plotted is the DCM corrected, baseline corrected, normalized data. For 1, and 3-5, the following parameters were used: slits 5 nm, step size 1 nm, integration time, 0.25 s. […]
(§3) Polymethine dyes disclosed herein are characterized with respect to their photophysics including absorption, emission, extinction coefficient, quantum yields, and fluorescence lifetime. All quantum yields values obtained are absolute quantum yields values measured using an integrating sphere. Photostabilities are evaluated by sample irradiation with high powered LEDs. Additionally, solvatochromism, solvent compatibility, and stability are assessed.

[2] = Absorption spectra of flavylium dyes in dichloromethane (UV-Visible/NIR spectrophotometer)
Description: as §1, §2, §3

[3] = Photobleaching under continuous-wave irradiation (532 nm, 0.53 fluence); conditions: for photostability (in words): dichloromethane, 532 nm irradiation
Description: Photostabilities of the Flav series were measured under continuous-wave irradiation (532 nm, 0.53 fluence).
as §3

SMILES: CN(C)c1ccc2c(c1)OC(c1ccccc1)=C\C2=C/C=C/C=C/c1cc(-c2ccccc2)[o+]c2cc(N(C)C)ccc12.[O-][Cl+3]([O-])([O-])[O-] [Dye 4, 7-(dimethylamino)-4-((1E,3E)-5-((E)-7-(dimethylamino)-2-phenyl-4H-chromen-4-ylidene)penta-1,3-dien-1-yl)-2-phenylchromenylium perchlorate]
photostability (in words) ([3]; listed as Flav5): excellent photostabilities; also recorded: desirable photostability

SMILES: CN(C)c1ccc2c(c1)OC(c1ccccc1)=C/C2=C\C=C\c1cc(-c2ccccc2)[o+]c2cc(N(C)C)ccc12.[O-][Cl+3]([O-])([O-])[O-] [Dye 5, 7-(Dimethylamino)-4-((E)-3-((E)-7-(dimethylamino)-2-phenyl-4H-chromen-4-ylidene)prop-1-en-1-yl)-2-phenylchromenylium perchlorate]
photostability (in words) [3]: excellent photostabilities | photostability relative to HITCI ([3]; more photostable than HITCI): 4 fold

Continued, values first:

emission (DCM) λmax ([1]; dichloromethane): 1081 nm | ΦF ([1]; dichloromethane, absolute quantum yield): 0.32±0.04%
SMILES: ClC1=C(/C=C/c2cc(-c3ccccc3)[s+]c(-c3ccccc3)c2)CCC/C1=C/C=C1C=C(c2ccccc2)SC(c2ccccc2)=C1.F[B-](F)(F)F [IR-1061]

absorption (DCM) λmax [2]: ~745 nm | absorption (DCM) ε ([2]; at λmax): ~220,000 M^−1cm^−1 | ΦF relative to Flav3 ([1]; higher ΦF than Flav3): ~10 fold
SMILES: CN1C(=CC=CC=CC=CC2=[N+](C)c3ccccc3C2(C)C)C(C)(C)c2ccccc21.[I-] [HITCI, 1,1′,3,3,3′,3′-hexamethylindotricarbocyanine iodide]

photostability (in words) [3]: excellent photostabilities
SMILES: CN(C)c1ccc2c(c1)OC(c1ccccc1)=C/C2=C\c1cc(-c2ccccc2)[o+]c2cc(N(C)C)ccc12.O=C([O-])C(F)(F)F [Dye 6, (E)-7-(Dimethylamino)-4-((7-(dimethylamino)-2-phenyl-4H-chromen-4-ylidene)methyl)-2-phenylchromenylium 2,2,2-trifluoroacetate]

From patent US20210363124A1, “HETEROCYCLYL POLYMETHINE IR CHROMOPHORES” (The Regents of the University of California, priority 2018, published 2021)
